From US11542313B2, “Incretin analogs and uses thereof” (Eli Lilly and Company, priority 2017, dated 2023)
pEC50, pKi: −log10 of the molar value. *1 amine or outer side, *2 acyl side, *3 side chain or, on linkers, in order; H or OH if unused. Where a SMILES comes first, the peptide text is derived from it. Side-chain parts run from the residue outwards. [ ]: non-standard residue; d: D form. The star is where a group is joined. C20 diacid = O=C(O)CCCCCCCCCCCCCCCCCCC(=O)*; γGlu = O=C(O)[C@H](CCC(=O)[*:2])N[*:1]; αMeL = CC(C)C[C@](C)(N)C(=O)O; AEEA = NCCOCCOCC(=O)O; Aib = CC(C)(N)C(=O)O

Key:
[1] = target: T1, human GIP receptor (GIPR) (Homo sapiens, UniProt P48546); assay: Radioligand competition binding (SPA), human GIPR membranes; settings: HEK293 membranes, SPA, bacitracin present; mean; read-out: Ki, GIPR
T1 construct: expressed in transfected cells; host or cells: HEK293 (membranes)
T1 sequence (P48546 22-466): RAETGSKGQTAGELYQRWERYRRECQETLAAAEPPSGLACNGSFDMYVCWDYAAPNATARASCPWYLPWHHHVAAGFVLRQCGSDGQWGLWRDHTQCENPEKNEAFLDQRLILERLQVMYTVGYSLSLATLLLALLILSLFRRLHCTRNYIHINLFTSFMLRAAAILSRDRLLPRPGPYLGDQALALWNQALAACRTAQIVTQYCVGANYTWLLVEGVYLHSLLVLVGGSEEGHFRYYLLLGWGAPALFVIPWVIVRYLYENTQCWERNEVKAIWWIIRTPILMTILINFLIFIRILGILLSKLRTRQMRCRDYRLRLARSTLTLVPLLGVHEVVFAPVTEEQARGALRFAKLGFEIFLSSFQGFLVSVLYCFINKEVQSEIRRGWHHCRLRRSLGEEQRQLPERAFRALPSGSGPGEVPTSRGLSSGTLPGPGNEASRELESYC
Text: (§1) Radioligand competition binding assays are run to determine the equilibrium dissociation constant for exemplary compounds and comparator molecules.
(§2) Competition curves are plotted as the percent specific inhibition (y-axis) versus log concentration of compound (x-axis) and analyzed using a four parameter nonlinear regression fit with variable slope (ABase or Genedata).

hGcgR = target: T2, hGcgR (Homo sapiens, UniProt P47871); assay: cAMP assay in HEK293 cells expressing hGcgR, 0.1% casein; assay type: cell-based; settings: in the presence of 0.1% casein; read-out: cAMP EC50, GcGR
T2 construct: expressed in transfected cells; host or cells: HEK293
T2 sequence (P47871 26-477): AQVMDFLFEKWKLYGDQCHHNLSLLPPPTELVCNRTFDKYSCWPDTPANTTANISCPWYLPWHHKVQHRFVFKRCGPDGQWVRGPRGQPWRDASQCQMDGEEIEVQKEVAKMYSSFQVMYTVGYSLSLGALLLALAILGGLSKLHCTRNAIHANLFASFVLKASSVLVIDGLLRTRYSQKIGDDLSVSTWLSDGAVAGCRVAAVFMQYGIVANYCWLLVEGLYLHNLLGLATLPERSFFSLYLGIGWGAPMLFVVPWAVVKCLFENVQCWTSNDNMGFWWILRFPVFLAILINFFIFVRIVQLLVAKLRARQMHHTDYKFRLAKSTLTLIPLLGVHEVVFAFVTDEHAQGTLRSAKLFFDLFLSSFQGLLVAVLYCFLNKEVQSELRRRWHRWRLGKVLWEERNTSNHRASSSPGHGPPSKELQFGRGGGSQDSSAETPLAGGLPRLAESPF

hGLP-1R = hGLP-1R (Homo sapiens, UniProt P43220); assay: cAMP assay in HEK293 cells expressing hGLP-1R, 0.1% casein; assay type: cell-based; settings: in the presence of 0.1% casein; read-out: cAMP EC50, GLP-1R
Chain of hGLP-1R (P43220 24-463): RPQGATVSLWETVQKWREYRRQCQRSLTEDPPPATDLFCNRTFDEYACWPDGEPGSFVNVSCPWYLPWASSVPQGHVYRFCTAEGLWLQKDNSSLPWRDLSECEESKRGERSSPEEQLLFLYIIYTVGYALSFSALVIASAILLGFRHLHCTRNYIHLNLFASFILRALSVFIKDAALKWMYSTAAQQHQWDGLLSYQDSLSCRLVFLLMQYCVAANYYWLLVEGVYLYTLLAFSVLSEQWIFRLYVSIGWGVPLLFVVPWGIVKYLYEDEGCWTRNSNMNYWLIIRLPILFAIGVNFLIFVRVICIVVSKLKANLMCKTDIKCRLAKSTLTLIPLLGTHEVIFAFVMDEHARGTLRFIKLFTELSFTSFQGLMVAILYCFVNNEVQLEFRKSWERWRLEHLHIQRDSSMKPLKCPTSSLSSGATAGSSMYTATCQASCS

GLP-1 receptor (GLP-1R) = target: T3, GLP-1 receptor (GLP-1R) (Homo sapiens, UniProt P43220); assay: Radioligand competition binding (SPA), human GLP-1R membranes; settings: HEK293 membranes, SPA, bacitracin present; mean; read-out: Ki, GLP-1R
T3 construct: expressed in transfected cells; host or cells: HEK293 (membranes)
T3 sequence (P43220 24-463): as above
Text: as §1, §2

hGIPR = target: T4, hGIPR (Homo sapiens, UniProt P48546); assay: cAMP assay in HEK293 cells expressing hGIPR, 0.1% casein; assay type: cell-based; settings: in the presence of 0.1% casein; read-out: cAMP EC50, GIPR
T4 construct: expressed in transfected cells; host or cells: HEK293
T4 sequence (P48546 22-466): T1 sequence (P48546 22-466)

[2] = target: T5, human glucagon receptor (GcgR) (Homo sapiens, UniProt P47871); assay: Radioligand competition binding (SPA), human GcgR membranes; settings: HEK293 membranes, SPA, bacitracin present; mean; read-out: Ki, GcgR
T5 construct: expressed in transfected cells; host or cells: HEK293 (membranes)
T5 sequence (P47871 26-477): as the sequence (P47871 26-477) above
Text: as §1, §2

SMILES	pKi [1]	pEC50 (hGcgR)	pEC50 (hGLP-1R)	pKi (GLP-1 receptor (GLP-1R))	pEC50 (hGIPR)	pKi [2]
CC[C@H](C)[C@H](NC(=O)[C@H](Cc1ccccc1)NC(=O)[C@H](C)NC(=O)C(C)(C)NC(=O)[C@H](CCC(N)=O)NC(=O)[C@H](C)NC(=O)[C@H](CCCCNC(=O)COCCOCCNC(=O)CC[C@H](NC(=O)CCCCCCCCCCCCCCCCCCC(=O)O)C(=O)O)NC(=O)[C@H](CCCCN)NC(=O)[C@H](CC(=O)O)NC(=O)[C@H](CC(C)C)NC(=O)[C@](C)(CC(C)C)NC(=O)[C@@H](NC(=O)[C@H](CO)NC(=O)[C@H](Cc1ccc(O)cc1)NC(=O)[C@H](CC(=O)O)NC(=O)[C@H](CO)NC(=O)[C@@H](NC(=O)[C@H](Cc1ccccc1)NC(=O)[C@@H](NC(=O)CNC(=O)[C@H](CCC(N)=O)NC(=O)C(C)(C)NC(=O)[C@@H](N)Cc1ccc(O)cc1)[C@@H](C)O)[C@@H](C)O)[C@@H](C)CC)C(=O)N[C@@H](CCC(=O)O)C(=O)N[C@@H](Cc1ccc(O)cc1)C(=O)N[C@@H](CC(C)C)C(=O)N[C@@H](CC(C)C)C(=O)N[C@@H](CCC(=O)O)C(=O)NC(C)(C)C(=O)NCC(=O)N1CCC[C@H]1C(=O)N[C@@H](CO)C(=O)N[C@@H](CO)C(=O)NC(C)(C)C(=O)N[C@@H](C)C(=O)N1CCC[C@H]1C(=O)N1CCC[C@H]1C(=O)N1CCC[C@H]1C(=O)N[C@@H](CO)C(N)=O [Example 14] (H-Y[Aib]QGTFTSDYSI[αMeL]LDKK([AEEA-γGlu-C20 diacid])AQ[Aib]AFIEYLLE[Aib]GPSS[Aib]APPPS-NH2; N-terminus assumed)	10.46	10.06	9.84	8.20	10.45	8.58
CC[C@H](C)[C@H](NC(=O)[C@H](Cc1ccccc1)NC(=O)[C@H](C)NC(=O)C(C)(C)NC(=O)[C@H](CCC(N)=O)NC(=O)[C@H](C)NC(=O)[C@H](CCCCNC(=O)COCCOCCNC(=O)CC[C@H](NC(=O)CC[C@H](NC(=O)CCCCCCCCCCCCCCCCCCC(=O)O)C(=O)O)C(=O)O)NC(=O)[C@H](CCCCN)NC(=O)[C@H](CC(=O)O)NC(=O)[C@H](CC(C)C)NC(=O)[C@H](CC(C)C)NC(=O)[C@@H](NC(=O)[C@H](CO)NC(=O)[C@H](Cc1ccc(O)cc1)NC(=O)[C@H](CC(=O)O)NC(=O)[C@H](CO)NC(=O)[C@@H](NC(=O)[C@H](Cc1ccccc1)NC(=O)[C@@H](NC(=O)CNC(=O)[C@H](CCC(N)=O)NC(=O)C(C)(C)NC(=O)[C@@H](N)Cc1ccc(O)cc1)[C@@H](C)O)[C@@H](C)O)[C@@H](C)CC)C(=O)N[C@@H](CCC(=O)O)C(=O)N[C@@H](Cc1ccc(O)cc1)C(=O)N[C@@H](CC(C)C)C(=O)N[C@@H](CC(C)C)C(=O)N[C@@H](CCC(=O)O)C(=O)NC(C)(C)C(=O)NCC(=O)N1CCC[C@H]1C(=O)N[C@@H](CO)C(=O)N[C@@H](CO)C(=O)NCC(=O)N[C@@H](C)C(=O)N1CCC[C@H]1C(=O)N1CCC[C@H]1C(=O)N1CCC[C@H]1C(=O)N[C@@H](CO)C(N)=O [Example 19] (H-Y[Aib]QGTFTSDYSILLDKK([AEEA-γGlu-γGlu-C20 diacid])AQ[Aib]AFIEYLLE[Aib]GPSSGAPPPS-NH2; N-terminus assumed)	10.10	10.06	9.84	7.92	10.34	8.28
CC[C@H](C)[C@H](NC(=O)[C@H](Cc1ccccc1)NC(=O)[C@H](C)NC(=O)[C@H](Cc1c[nH]cn1)NC(=O)[C@H](CCC(N)=O)NC(=O)[C@H](C)NC(=O)[C@H](CCCCNC(=O)COCCOCCNC(=O)CC[C@H](NC(=O)CCCCCCCCCCCCCCCCCCC(=O)O)C(=O)O)NC(=O)[C@H](CCCCN)NC(=O)[C@H](CC(=O)O)NC(=O)[C@H](CC(C)C)NC(=O)[C@](C)(CC(C)C)NC(=O)[C@@H](NC(=O)[C@H](CO)NC(=O)[C@H](Cc1ccc(O)cc1)NC(=O)[C@H](CC(=O)O)NC(=O)[C@H](CO)NC(=O)[C@@H](NC(=O)[C@H](Cc1ccccc1)NC(=O)[C@@H](NC(=O)CNC(=O)[C@H](CCC(N)=O)NC(=O)C(C)(C)NC(=O)[C@@H](N)Cc1ccc(O)cc1)[C@@H](C)O)[C@@H](C)O)[C@@H](C)CC)C(=O)N[C@@H](CCC(=O)O)C(=O)N[C@@H](Cc1ccc(O)cc1)C(=O)N[C@@H](CC(C)C)C(=O)N[C@@H](CC(C)C)C(=O)N[C@@H](C)C(=O)NC(C)(C)C(=O)NCC(=O)N1CCC[C@H]1C(=O)N[C@@H](CO)C(=O)N[C@@H](CO)C(=O)NCC(=O)N[C@@H](C)C(=O)N1CCC[C@H]1C(=O)N1CCC[C@H]1C(=O)N1CCC[C@H]1C(=O)N[C@@H](CO)C(N)=O [Example 2] (H-Y[Aib]QGTFTSDYSI[αMeL]LDKK([AEEA-γGlu-C20 diacid])AQHAFIEYLLA[Aib]GPSSGAPPPS-NH2)	10.18	10.26	9.68	8.35	10.32	8.43
CC[C@H](C)[C@H](NC(=O)[C@H](Cc1ccccc1)NC(=O)[C@H](C)NC(=O)[C@H](CCC(N)=O)NC(=O)[C@H](C)NC(=O)[C@H](C)NC(=O)[C@H](CCCCNC(=O)COCCOCCNC(=O)COCCOCCNC(=O)CC[C@H](NC(=O)CCCCCCCCCCCCCCCCCCC(=O)O)C(=O)O)NC(=O)[C@H](CCCCN)NC(=O)[C@H](CC(=O)O)NC(=O)[C@H](CC(C)C)NC(=O)[C@](C)(CC(C)C)NC(=O)[C@@H](NC(=O)[C@H](CO)NC(=O)[C@H](Cc1ccc(O)cc1)NC(=O)[C@H](CC(=O)O)NC(=O)[C@H](CO)NC(=O)[C@@H](NC(=O)[C@H](Cc1ccccc1)NC(=O)[C@@H](NC(=O)CNC(=O)[C@H](CCC(N)=O)NC(=O)C(C)(C)NC(=O)[C@@H](N)Cc1ccc(O)cc1)[C@@H](C)O)[C@@H](C)O)[C@@H](C)CC)C(=O)N[C@@H](CCC(=O)O)C(=O)N[C@@H](Cc1ccc(O)cc1)C(=O)N[C@@H](CC(C)C)C(=O)N[C@@H](CC(C)C)C(=O)N[C@@H](CCC(=O)O)C(=O)NC(C)(C)C(=O)NCC(=O)N1CCC[C@H]1C(=O)N[C@@H](CO)C(=O)N[C@@H](CO)C(=O)NCC(=O)N[C@@H](C)C(=O)N1CCC[C@H]1C(=O)N1CCC[C@H]1C(=O)N1CCC[C@H]1C(=O)N[C@@H](CO)C(N)=O [Example 5] (H-Y[Aib]QGTFTSDYSI[αMeL]LDKK([AEEA-AEEA-γGlu-C20 diacid])AAQAFIEYLLE[Aib]GPSSGAPPPS-NH2)	9.75	10.65	9.83	7.44	10.12	9.37
